Measured values from article PMC10135569, “Does Enhanced Structural Maturity of hiPSC-Cardiomyocytes Better for the Detection of Drug-Induced Cardiotoxicity?” (Biomolecules, 2023).

Columns and labels:
[1] = tested on: hiPSC-CMs (iCell2 Cardiomyocytes) 2D monolayers; assay: Contractility measurements using video imaging (ContractilityTool / MUSCLEMOTION); type: cell-based, human; settings: Homo sapiens, Cardiomyocyte, 0.5 h, 30 min, delta over DMSO 0.1%
Summary of the method: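 Monolayers on fibronectin or Matrix Plus coating, tested on days 5–6 in serum-free medium. Four concentrations, one per well, n = 8, with vehicle control.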

[2] = listed in Supplementary Table S1; no reference given; cited from earlier work
[3] = tested on: hiPSC-CMs (iCell2 Cardiomyocytes) 2D monolayers; assay: Membrane potential (action potential) recordings with FluoVolt voltage-sensitive dye on the CellOPTIQ platform; type: cell-based, human; settings: for activity at 1 µM / activity at 3 µM / activity at 10 µM: Homo sapiens, Cardiomyocyte, 0.5 h, 30 min, delta over DMSO 0.1%
Summary of the method: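 iCell2 hiPSC-CM monolayers (50,000 cells/well on fibronectin or Matrix Plus, days 5–6) were loaded with FluoVolt (1:1000, 20 min, 37 °C) and imaged at 37 °C with 470 nm excitation and 510–560 nm emission sampled at 10 kHz. Spontaneous action potentials were recorded for 10 s at baseline and 30 min after drug, with one of four concentrations per well (n = 8).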

[4] = FM monolayer, read-out: CtAmp (%DD)
[5] = FM monolayer, read-out: CtD50 (%DD)
[6] = MM monolayer, read-out: CtAmp (%DD)
[7] = MM monolayer, read-out: CtD50 (%DD)
[8] = FM monolayer, read-out: APD30 (%DD)
[9] = FM monolayer, read-out: APD90 (%DD)
[10] = FM monolayer, read-out: CL (%DD)
[11] = FM monolayer, read-out: Trise (%DD)
[12] = MM monolayer, read-out: APD30 (%DD)
[13] = MM monolayer, read-out: APD90 (%DD)
[14] = MM monolayer, read-out: CL (%DD)
[15] = MM monolayer, read-out: Trise (%DD)

Compound: CC(CCc1ccc(O)cc1)NCCc1ccc(O)c(O)c1 (stereo not drawn) [Dobutamine]
- activity at 1 µM [1, 4]: 93 ± 10.7%
- activity at 1 µM [1, 5]: 79 ± 1.5%
- activity at 3 µM [1, 4]: 99 ± 8.4%
- activity at 3 µM [1, 5]: 75 ± 2%
- activity at 10 µM [1, 4]: 82 ± 3.2%
- activity at 10 µM [1, 5]: 82 ± 2.2%
- activity at 1 µM [1, 6]: 101 ± 11.6%
- activity at 1 µM [1, 7]: 82 ± 1.1%
- activity at 3 µM [1, 6]: 89 ± 6.3%
- activity at 3 µM [1, 7]: 78 ± 1.2%
- activity at 10 µM [1, 6]: 98 ± 7.5%
- activity at 10 µM [1, 7]: 77 ± 1.3%
- Free Cmax [2]: 80 nM
- activity at 1 µM [3, 8]: 84 ± 1.4%
- activity at 1 µM [3, 9]: 89 ± 0.9%
- activity at 1 µM [3, 10]: 76 ± 0.4%
- activity at 1 µM [3, 11]: 86 ± 5.3%
- activity at 3 µM [3, 8]: 77 ± 1.5%
- activity at 3 µM [3, 9]: 86 ± 0.8%
- activity at 3 µM [3, 10]: 77 ± 0.9%
- activity at 3 µM [3, 11]: 100 ± 18.9%
- activity at 10 µM [3, 8]: 90 ± 2%
- activity at 10 µM [3, 9]: 91 ± 1.9%
- activity at 10 µM [3, 10]: 81 ± 0.8%
- activity at 10 µM [3, 11]: 131 ± 21.5%
- activity at 1 µM [3, 12]: 89 ± 1.2%
- activity at 1 µM [3, 13]: 91 ± 1%
- activity at 1 µM [3, 14]: 75 ± 0.7%
- activity at 1 µM [3, 15]: 91 ± 7.1%
- activity at 3 µM [3, 12]: 85 ± 1.3%
- activity at 3 µM [3, 13]: 91 ± 0.9%
- activity at 3 µM [3, 14]: 76 ± 0.5%
- activity at 3 µM [3, 15]: 109 ± 14.1%
- activity at 10 µM [3, 12]: 86 ± 1.9%
- activity at 10 µM [3, 13]: 96 ± 0.9%
- activity at 10 µM [3, 14]: 81 ± 0.6%
- activity at 10 µM [3, 15]: 146 ± 13.9%
- effect on cycle length (in words) ([3]; both FM and MM monolayers, concentration not given): concentration-dependent decrease
- electrical activity of the monolayers at higher concentrations ([3]; higher concentrations, FM and MM): electrically quiescent
